Legend:
auxin signaling mutants = assay: Effect of activators on lateral root density of auxin signaling mutants (Table 2); type: in vivo, Arabidopsis thaliana
Description: Afb1, Afb2, Afb3 and the triple mutant Tirlafb2afb3 were described by Dhamasiri et al. (2005). Tir1 was described by Ruegger et al., (1998); 1aa28 by Rogg et al., (2001); Tir7-1 by Ruegger et al., (1997); the Cyp79b2b3 double mutant by Ljung et al. (2005); the arf7arf19 double mutant by Fukaki et al., (2005); Aux1 by Bennett et al., (1996); Xbat32 by Nodzon et al., (2004), Axr1-12 by Timpte et al., (1995), Slr1 by Fukaki et al., 2002 and Axr3-1 by Collet et al., (2000) and the mutants were obtained from the publishing authors.
For phenotypic analysis, all mutants were grown on vertically oriented square plates (Greiner Labortechnik, Austria) with solid medium derived from standard MS medium. The plates were put in a growth chamber under continuous light (110 μE.m2.s1 photosynthetically active radiation, supplied by cool-white fluorescent tungsten tubes; Osram) at 22° C. Three days after germination, the mutant plants were transferred to medium supplemented with compounds and were left to grow for another 7 days. After this, root length and number of lateral roots were counted using ImageJ 1.34 freeware.

[1] = test system: Wild-type Arabidopsis thaliana; assay: Dose-response analysis of lateral root density and root length; type: in vivo; conditions: structural variants, FIG. 6-8
Protocol: FIG. 3: Dose-response analysis of class 1 (upper panel) and class 2 (lower panel) activators. Wild-type Arabidopsis thaliana seeds were germinated under standard conditions on agar plates. After 3 days of germination, seedlings were transferred to agar plates containing compound at different concentrations. Lateral root density was measured 10 days after germination. Bars represent standard errors.
FIG. 4: Dose-response analysis of A2, A11, A12, A14 and NAA. Wild-type Arabidopsis thaliana seeds were germinated under standard conditions on agar plates. After 3 days of germination, seedlings were transferred to agar plates containing compound at different concentrations and 1% DMSO. Plants transferred to agar plates containing 1% DMSO and no compound were used as controls. Lateral root density (left panels) and root length (right panels) were measured 10 days after germination. Bars represent standard errors.
For further phenotypic analysis, all plants were grown on vertically oriented square plates (Greiner Labortechnik, Austria) with solid medium derived from standard MS medium under the same conditions. 3 DAG plants were transferred to medium supplemented with compounds and were left to grow for another 7 days. After this, root length and number of LRs were counted using ImageJ 1.34 freeware.
As a subsequent step, the phenotypic effect of the 16 selected activators was determined in a dose-response analysis in which LR density (number of LRs per cm) was quantified (FIG. 3). Based upon potency and structure, two different classes of activators could be identified.

SMILES	lateral root density (auxin signaling mutants; Afb1-1, 3 uM)	lateral root density (auxin signaling mutants; Afb2-1, 3 uM)	lateral root density (auxin signaling mutants; Afb3-1, 3 uM)	lateral root density (auxin signaling mutants; Arf7Arf19, 3 uM)	lateral root density (auxin signaling mutants; Arf16, 3 uM)	lateral root density (auxin signaling mutants; Arf17, 3 uM)	lateral root density (auxin signaling mutants; Axrt-12, 3 uM)	lateral root density (auxin signaling mutants; Cyp79, 3 uM)	lateral root density (auxin signaling mutants; Iaa28-1, 3 uM)	lateral root density (auxin signaling mutants; Tir1-1, 3 uM)	lateral root density (auxin signaling mutants; Tir7-1, 3 uM)	lateral root density (auxin signaling mutants; TirTM, 3 uM)	lateral root density (auxin signaling mutants; Xbat32, 3 uM)	also measured
Clc1cccc(C=Nc2ccc(N3CCOCC3)cc2)c1Cl [A4, (2,3-dichlorobenzylidene)[4-(4-morpholinyl)phenyl]amine]	2.69 LR/cm	2.16 LR/cm	2.55 LR/cm	0.00 LR/cm	1.99 LR/cm	1.87 LR/cm	1.64 LR/cm	2.64 LR/cm	0.00 LR/cm	0.89 LR/cm	3.69 LR/cm	0.00 LR/cm	0.91 LR/cm	
Nc1ncc(Cc2cccc(Cl)c2Cl)s1 [A3, 5-(2,3-dichlorobenzyl)-1,3-thiazol-2-amine]	17.77 LR/cm	19.58 LR/cm	17.45 LR/cm	33.59 LR/cm	11.32 LR/cm	13.31 LR/cm	15.77 LR/cm	21.24 LR/cm	13.96 LR/cm	11.91 LR/cm	26.15 LR/cm	10.88 LR/cm	13.07 LR/cm	
Cc1ccccc1OCC(=O)NN=Cc1ccc(C(=O)O)cc1 [A9, 4-{2-[(2-methylphenoxy)acetyl]carbonohydrazonoyl}benzoic acid]														lateral root density (auxin signaling mutants; Afb1-1, 30 uM): 13.57 LR/cm; lateral root density (auxin signaling mutants; Afb2-1, 30 uM): 11.19 LR/cm; lateral root density (auxin signaling mutants; Afb3-1, 30 uM): 16.77 LR/cm; lateral root density (auxin signaling mutants; Arf7Arf19, 30 uM): 0.25 LR/cm; lateral root density (auxin signaling mutants; Arf16, 30 uM): 6.67 LR/cm; lateral root density (auxin signaling mutants; Arf17, 30 uM): 12.86 LR/cm; lateral root density (auxin signaling mutants; Axrt-12, 30 uM): 6.09 LR/cm; lateral root density (auxin signaling mutants; Cyp79, 30 uM): 13.29 LR/cm; lateral root density (auxin signaling mutants; Iaa28-1, 30 uM): 12.33 LR/cm; lateral root density (auxin signaling mutants; Tir1-1, 30 uM): 3.29 LR/cm; lateral root density (auxin signaling mutants; Tir7-1, 30 uM): 17.91 LR/cm; lateral root density (auxin signaling mutants; TirTM, 30 uM): 0.00 LR/cm; lateral root density (auxin signaling mutants; Xbat32, 30 uM): 8.43 LR/cm
O=C(NN=Cc1cccc(Cl)c1Cl)c1ccc(O)c(O)c1 [A6, N′-(2,3-dichlorobenzylidene)-3,4-dihydroxybenzohydrazide]	10.89 LR/cm	7.34 LR/cm	14.40 LR/cm	0.00 LR/cm	6.67 LR/cm	7.24 LR/cm	4.78 LR/cm	31.92 LR/cm	0.00 LR/cm	0.57 LR/cm	11.42 LR/cm	0.00 LR/cm	10.08 LR/cm	
Cc1c(N=Cc2cccc(Cl)c2Cl)cccc1[N+](=O)[O-] [A7, (2,3-dichlorobenzylidene)(2-methyl-3-nitrophenyl)amine]	9.46 LR/cm	2.69 LR/cm	17.43 LR/cm	0.00 LR/cm	2.71 LR/cm	3.40 LR/cm	2.02 LR/cm	19.35 LR/cm	0.00 LR/cm	1.01 LR/cm	5.73 LR/cm	0.00 LR/cm	1.23 LR/cm	
O=Cc1ccc(-c2cccc(C(F)(F)F)c2)o1 [A11var5]														effect on LR formation (LR density), structure-activity analysis [1]: minimal substructure required to induce LR formation

From US8486863B2, “Activators of lateral root formation” (VIB VZW, priority 2006, dated 2013)
